{"source": "ChEMBL document CHEMBL2390819", "about": "“A convenient synthesis of GDP-D-rhamnose: the donor substrate for D-rhamnosyltransferase WbpZ from Pseudomonas aeruginosa PAO1” (Bioorg Med Chem Lett, 2013)", "molecular_target": "T1, D-rhamnosyltransferase WbpZ (Pseudomonas aeruginosa (strain ATCC 15692 / PAO1 / 1C / PRS 101 / LMG12228)) (UniProt Q9HTC0)", "T1 sequence (whole entry)": "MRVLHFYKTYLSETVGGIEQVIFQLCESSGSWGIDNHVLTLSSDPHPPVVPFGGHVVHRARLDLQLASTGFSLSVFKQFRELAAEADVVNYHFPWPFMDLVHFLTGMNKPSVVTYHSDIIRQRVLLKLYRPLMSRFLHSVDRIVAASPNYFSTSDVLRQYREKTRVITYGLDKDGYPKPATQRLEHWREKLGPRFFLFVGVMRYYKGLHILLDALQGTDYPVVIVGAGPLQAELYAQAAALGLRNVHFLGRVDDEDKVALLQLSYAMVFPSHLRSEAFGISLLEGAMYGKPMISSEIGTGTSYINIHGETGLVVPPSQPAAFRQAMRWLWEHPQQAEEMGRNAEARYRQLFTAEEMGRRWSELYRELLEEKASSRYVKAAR", "assay": "Activity at Pseudomonas aeruginosa PAO1 his-tagged D-rhamnosyltransferase WbpZ expressed in Escherichia coli BL21 at 0.25 mM after 1 hr by MALDI-MS analysis", "note": "Calls of active or inactive are those of the source. The rule behind the calls is not given here."}
{"smiles": "C[C@H]1O[C@H](OP(=O)(O)OP(=O)(O)OC[C@H]2O[C@@H](n3cnc4c(=O)[nH]c(N)nc43)[C@H](O)[C@@H]2O)[C@@H](O)[C@@H](O)[C@@H]1O", "values": [{"measurement": "Activity", "result": "Active"}]}
